Reference: PubChem BioAssay AID330 (DTP/NCI, 2004)
Several values for one entry are separate records, joined by “and”; a condition that tells them apart may be missing. Identical values can stand only once. Toxic doses and inconclusive results are not listed. The calls were made as follows: active = survival T/C of 150% or more; inactive = T/C below 125% in these data.

Tested on: P388 leukemia ip, CD2F1 mice, survival T/C
Experiment: NCI In Vivo Anticancer Drug Screen. Data for tumor model P388 Leukemia (intraperitoneal) in CD2F1 (CDF1) mice
Details: endpoint: median survival time, higher = longer survival
Procedure, shortened: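 Mice carrying the transplanted tumor received test compound or vehicle. Survival was recorded in each group, and the value is the treated-group measurement divided by that of the vehicle-treated control group.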

[1] = dose: 15.0 mg/kg/injection, schedule: Q01DX005 (ip), vehicle: saline
[2] = dose: 30.0 mg/kg/injection, schedule: Q01DX005 (ip), vehicle: saline
[3] = dose: 60.0 mg/kg/injection, schedule: Q01DX005 (ip), vehicle: saline
[4] = dose: 120.0 mg/kg/injection, schedule: Q01DX005 (ip), vehicle: saline
[5] = dose: 240.0 mg/kg/injection, schedule: Q01DX005 (ip), vehicle: saline
[6] = dose: 100.0 mg/kg/injection, schedule: Q04DX003 (ip), vehicle: Klucel (hydroxypropylcellulose) (HPC)
[7] = dose: 200.0 mg/kg/injection, schedule: Q04DX003 (ip), vehicle: Klucel (hydroxypropylcellulose) (HPC)
[8] = dose: 400.0 mg/kg/injection, schedule: Q04DX003 (ip), vehicle: Klucel (hydroxypropylcellulose) (HPC)
[9] = dose: 50.0 mg/kg/injection, schedule: Q01DX005 (ip), vehicle: saline
[10] = dose: 100.0 mg/kg/injection, schedule: Q01DX005 (ip), vehicle: saline
[11] = dose: 200.0 mg/kg/injection, schedule: Q01DX005 (ip), vehicle: saline
[12] = dose: 50.0 mg/kg/injection, schedule: Q01DX009 (ip), vehicle: saline with Tween-80
[13] = dose: 100.0 mg/kg/injection, schedule: Q01DX009 (ip), vehicle: saline with Tween-80
[14] = dose: 200.0 mg/kg/injection, schedule: Q01DX009 (ip), vehicle: saline with Tween-80
[15] = dose: 60.0 mg/kg/injection, schedule: Q01DX005 (ip), vehicle: Klucel (hydroxypropylcellulose) (HPC)
[16] = dose: 120.0 mg/kg/injection, schedule: Q01DX005 (ip), vehicle: Klucel (hydroxypropylcellulose) (HPC)
[17] = dose: 50.0 mg/kg/injection, schedule: Q01DX005 (ip), vehicle: saline with Tween-80
[18] = dose: 100.0 mg/kg/injection, schedule: Q01DX005 (ip), vehicle: saline with Tween-80
[19] = dose: 200.0 mg/kg/injection, schedule: Q01DX005 (ip), vehicle: saline with Tween-80
[20] = dose: 50.0 mg/kg/injection, schedule: Q01DX005 (ip), vehicle: Klucel (hydroxypropylcellulose) (HPC)
[21] = dose: 100.0 mg/kg/injection, schedule: Q01DX005 (ip), vehicle: Klucel (hydroxypropylcellulose) (HPC)

Measured: T/C

CCN(CC)CC(C)(C)C(=O)/C=C/c1ccc(Cl)c(Cl)c1
inactive: dose: 7.5 mg/kg/injection, schedule: Q01DX005 (ip), vehicle: saline 102 % of control | [1] 101 % of control | [2] 112 % of control | [3] 110 % of control | [4] 118 % of control | [5] 109 % of control

O=c1nc2n(c3nccnc13)CCS2
inactive: dose: 12.5 mg/kg/injection, schedule: Q01DX009 (ip), vehicle: saline 111 % of control | dose: 25.0 mg/kg/injection, schedule: Q01DX009 (ip), vehicle: saline 104 % of control | dose: 50.0 mg/kg/injection, schedule: Q01DX009 (ip), vehicle: saline 100 % of control

Cc1ccc(S(=O)(=O)OCCN(CCN(CCOS(=O)(=O)c2ccc(C)cc2)c2ccccc2)c2ccccc2)cc1
inactive: [6] 99 % of control | [7] 110 % of control | [8] 101 % of control

CCN(CC)CCn1c2c(c3ccc(OC)cc31)CCN1CC3CC(OC(=O)c4cc(OC)c(OC)c(OC)c4)C(OC)C(C(=O)OC)C3CC21 (stereo not drawn)
inactive: dose: 25.0 mg/kg/injection, schedule: Q01DX005 (ip), vehicle: saline 97 % of control | [9] 96 % of control | [10] 101 % of control | [11] 106 % of control

O=C(CN1CCCCC1)c1c(-c2ccccc2)[nH]c2ccccc12
inactive: dose: 100.0 mg/kg/injection, schedule: Q04DX003 (ip), vehicle: saline 108 % of control | dose: 200.0 mg/kg/injection, schedule: Q04DX003 (ip), vehicle: saline 99 % of control | dose: 400.0 mg/kg/injection, schedule: Q04DX003 (ip), vehicle: saline 93 % of control

O=C1OC(C2OC(=O)C(=O)C2C(=O)c2ccccc2)C(C(=O)c2ccccc2)C1=O (stereo not drawn)
inactive: dose: 60.0 mg/kg/injection, schedule: Q01DX005 (ip), vehicle: saline with Tween-80 111 % of control | dose: 120.0 mg/kg/injection, schedule: Q01DX005 (ip), vehicle: saline with Tween-80 108 % of control | dose: 240.0 mg/kg/injection, schedule: Q01DX005 (ip), vehicle: saline with Tween-80 108 % of control

CS(=O)(=O)/C=C/c1ccccc1
inactive: [12] 103 % of control | [13] 90 % of control | [14] 90 % of control

CCC1(c2ccnc3cc(Cl)ccc23)C(=O)NC(=O)NC1=O
inactive: dose: 50.0 mg/kg/injection, schedule: Q01DX009 (ip), vehicle: distilled water + alcohol 100 % of control | dose: 100.0 mg/kg/injection, schedule: Q01DX009 (ip), vehicle: distilled water + alcohol 98 % of control | dose: 200.0 mg/kg/injection, schedule: Q01DX009 (ip), vehicle: distilled water + alcohol 99 % of control

O=C(Nn1c(=O)[nH]c2ccccc2c1=O)c1ccc(Cl)cc1
inactive: [15] 98 % of control | [16] 93 % of control | dose: 240.0 mg/kg/injection, schedule: Q01DX005 (ip), vehicle: Klucel (hydroxypropylcellulose) (HPC) 90 % of control

CCOc1ccc2cc3c(nc2n1)[nH]c1ccccc13
inactive: [6] 103 % of control | [7] 107 % of control | [8] 110 % of control

O=C(CCN1C(=O)c2ccccc2C1=O)Nc1ncc[nH]1
inactive: dose: 8.75 mg/kg/injection, schedule: Q01DX005 (ip), vehicle: Klucel (hydroxypropylcellulose) (HPC) 98 % of control | dose: 17.5 mg/kg/injection, schedule: Q01DX005 (ip), vehicle: Klucel (hydroxypropylcellulose) (HPC) 98 % of control | dose: 35.0 mg/kg/injection, schedule: Q01DX005 (ip), vehicle: Klucel (hydroxypropylcellulose) (HPC) 96 % of control

OCC(O)C(Cl)CCl (stereo not drawn)
inactive: [3] 101 % of control | [4] 100 % of control | [5] 86 % of control

CCN(CC)Cc1cc(Nc2cc(C)nc3ccc(N(C)C)cc23)ccc1O
inactive: [1] 91 % of control | [2] 100 % of control | [3] 104 % of control and 110 % of control

Cc1cc(NCc2ccccc2)c(C)c2c1C=NCC2
inactive: dose: 12.5 mg/kg/injection, schedule: Q01DX009 (ip), vehicle: distilled water + Tween-80 97 % of control | dose: 25.0 mg/kg/injection, schedule: Q01DX009 (ip), vehicle: distilled water + Tween-80 97 % of control | dose: 50.0 mg/kg/injection, schedule: Q01DX009 (ip), vehicle: distilled water + Tween-80 106 % of control | dose: 100.0 mg/kg/injection, schedule: Q01DX009 (ip), vehicle: distilled water + Tween-80 92 % of control | dose: 200.0 mg/kg/injection, schedule: Q01DX009 (ip), vehicle: distilled water + Tween-80 87 % of control

CCCCCCCCCCCCCCCCCSc1c(O)c(O)c2cccnc2c1O (tested in a mixture with another compound)
inactive: [15] 104 % of control | [16] 105 % of control

CC(=O)NCN(C)[N+](=O)[O-]
inactive: [3] 115 % of control | [4] 97 % of control | [5] 108 % of control

CC(=O)Nc1ccc(-c2csc(Nc3ccnc4cc(Cl)ccc34)n2)cc1
inactive: [17] 93 % of control and 95 % of control | [18] 92 % of control | [19] 90 % of control and 92 % of control

COc1ccc([N+](=O)[O-])cc1NC(=O)N(C)Cc1ccco1
inactive: [12] 103 % of control | [13] 109 % of control | [14] 106 % of control

COc1cc2c(cc1Cc1ccc3c(c1)OCO3)OCO2
inactive: [20] 94 % of control | [21] 92 % of control | dose: 200.0 mg/kg/injection, schedule: Q01DX005 (ip), vehicle: Klucel (hydroxypropylcellulose) (HPC) 89 % of control

CCNC(=O)OCc1c(C)nc2n1CCS2
inactive: [20] 115 % of control | [21] 112 % of control

O=C(O)c1cnc2cc(C(F)(F)F)ccc2c1Nc1ccc2c(c1)OCO2
inactive: dose: 60.0 mg/kg/injection, schedule: Q01DX005 (ip), vehicle: Klucel + Tween-80 103 % of control | dose: 120.0 mg/kg/injection, schedule: Q01DX005 (ip), vehicle: Klucel + Tween-80 98 % of control | dose: 240.0 mg/kg/injection, schedule: Q01DX005 (ip), vehicle: Klucel + Tween-80 97 % of control

COc1cccc2c1C(=O)c1c(O)c3c(c(O)c1C2=O)C[C@@](O)(C(C)=O)C[C@@H]3OC1CC(NCC(c2ccccc2)c2ccccc2)C(O)C(C)O1 (stereo partly drawn)
inactive: dose: 6.25 mg/kg/injection, schedule: Q04DX003 (ip), vehicle: water 100 % of control | dose: 12.5 mg/kg/injection, schedule: Q04DX003 (ip), vehicle: water 101 % of control | dose: 25.0 mg/kg/injection, schedule: Q04DX003 (ip), vehicle: water 105 % of control | dose: 50.0 mg/kg/injection, schedule: Q04DX003 (ip), vehicle: water 110 % of control | dose: 100.0 mg/kg/injection, schedule: Q04DX003 (ip), vehicle: water 117 % of control

C[n+]1c(C2(C)CCCO2)sc2ccccc21 (stereo not drawn)
inactive: [3] 103 % of control

Cc1cc(Br)c(N)c(C(O)(C(F)(F)F)C(F)(F)F)c1
inactive: dose: 50.0 mg/kg/injection, schedule: Q01DX009 (ip), vehicle: Klucel (hydroxypropylcellulose) (HPC) 91 % of control | dose: 100.0 mg/kg/injection, schedule: Q01DX009 (ip), vehicle: Klucel (hydroxypropylcellulose) (HPC) 97 % of control | dose: 200.0 mg/kg/injection, schedule: Q01DX009 (ip), vehicle: Klucel (hydroxypropylcellulose) (HPC) 108 % of control

NNC(=O)C(O)C(O)C(O)C(O)CO (stereo not drawn)
inactive: [9] 92 % of control | [10] 100 % of control | [11] 100 % of control

COC(=O)c1ccc(C(=S)OC)cc1
inactive: dose: 100.0 mg/kg/injection, schedule: Q04DX002 (ip), vehicle: saline with Tween-80 108 % of control | dose: 200.0 mg/kg/injection, schedule: Q04DX002 (ip), vehicle: saline with Tween-80 100 % of control | dose: 400.0 mg/kg/injection, schedule: Q04DX002 (ip), vehicle: saline with Tween-80 101 % of control

CSc1nc(NC2OC(CO)C(O)C(O)C2O)c(C(=O)CCl)c(=O)n1C (stereo not drawn)
inactive: [17] 93 % of control | [18] 91 % of control | [19] 90 % of control

CC1CCC2(C)OC1OC2=O (stereo not drawn)
inactive: [17] 97 % of control | [18] 91 % of control | [19] 87 % of control
